# Literature values as cited in PubChem BioAssay AID1259409 (Chemical Carcinogenesis Research Information System (CCRIS), 2018).
# System: rodent chemically induced tumor inhibition, incidence and multiplicity
# Test: CCRIS tumor inhibitor studies
# Conditions: Dose [Inhibitor]: 0
smiles,measurement,setting,value
CC(C)CC(CN[C@@H](CC(C)C)C(N)=O)NC(=O)[C@H](Cc1cnc[nH]1)NC(=O)CNC(=O)[C@@H](NC(=O)C(C)NC(=O)[C@H](Cc1c[nH]c2ccccc12)NC(=O)[C@H](CCC(N)=O)NC(=O)[C@H]1Cc2c([nH]c3ccccc23)CN1)C(C)C (some centres undefined),"tumour outcome (control, treated, inhibition, significance)","Carcinogen: N-NITROSOBIS(2-OXOPROPYL)AMINE, 60599-38-4, 5 UG/D FROM OSMOTIC PUMP FOR 2 MO, Route [Inhibitor]: SUBCUTANEOUS IMPLANT, Species: HAMSTER, Strain/Sex: SYRIAN/FEMALE, Target Tissue: Type of Lesion: PANCREAS: ADENOCARCINOMA","10/11 (91%), 7/11 (64%), 30%, not calculated"
same,"tumour outcome (control, treated, inhibition, significance)","Carcinogen: N-NITROSOBIS(2-OXOPROPYL)AMINE, 60599-38-4, 20 UG/D BEGINNING 18 WK POST CARCINOGEN TREATMENT AND CONTINUING FOR 8 WK (STUDY DURATION: 32 WK), Route [Inhibitor]: SUBCUTANEOUS, Species: HAMSTER, Strain/Sex: SYRIAN/FEMALE, Target Tissue: Type of Lesion: PANCREAS: ADENOCARCINOMA, Dose [Carcinogen]: TREATMENT FOR 6 WK (DOSE NOT STATED), Promoter: NONE USED","12/12 (100%), 9/12 (75%), 25%, not significant"
same,"tumour outcome (control, treated, inhibition, significance)","Carcinogen: N-NITROSOBIS(2-OXOPROPYL)AMINE, 60599-38-4, 20 UG/D FROM OSMOTIC PUMP FOR 2 MO, Route [Inhibitor]: SUBCUTANEOUS IMPLANT, Species: HAMSTER, Strain/Sex: SYRIAN/FEMALE, Target Tissue: Type of Lesion: PANCREAS: ADENOCARCINOMA, Promoter: NONE USED","12/12 (100%), 6/12 (50%), 50%, not calculated"
same,"tumour outcome (control, treated, inhibition, significance)","Carcinogen: N-NITROSOBIS(2-OXOPROPYL)AMINE, 60599-38-4, 30 UG/D BEGINNING 18 WK POST CARCINOGEN TREATMENT AND CONTINUING FOR 8 WK (STUDY DURATION: 32 WK), Route [Inhibitor]: SUBCUTANEOUS, Species: HAMSTER, Strain/Sex: SYRIAN/FEMALE, Target Tissue: Type of Lesion: PANCREAS: ADENOCARCINOMA, Dose [Carcinogen]: TREATMENT FOR 6 WK (DOSE NOT STATED), Promoter: NONE USED","11/12 (92%), 8/12 (67%), 27%, not significant"
same,"tumour outcome (control, treated, inhibition, significance)","Carcinogen: N-NITROSOBIS(2-OXOPROPYL)AMINE, 60599-38-4, 30 UG/D FOR 2 MO, Route [Inhibitor]: SUBCUTANEOUS, Species: HAMSTER, Strain/Sex: SYRIAN/FEMALE, Target Tissue: Type of Lesion: PANCREAS: ADENOCARCINOMA","11/13 (85%), 12/13 (92%), -8%, not calculated"
same,"tumour outcome (control, treated, inhibition, significance)","Carcinogen: N-NITROSOBIS(2-OXOPROPYL)AMINE, 60599-38-4, 60 UG/D BEGINNING 18 WK POST CARCINOGEN TREATMENT AND CONTINUING FOR 8 WK (STUDY DURATION: 32 WK), Route [Inhibitor]: SUBCUTANEOUS, Species: HAMSTER, Strain/Sex: SYRIAN/FEMALE, Target Tissue: Type of Lesion: PANCREAS: ADENOCARCINOMA, Dose [Carcinogen]: TREATMENT FOR 6 WK (DOSE NOT STATED), Promoter: NONE USED","12/12 (100%), 2/12 (17%), 83%, p<0.01"
CCCCCCCCCCCCN=C=S,"tumour outcome (control, treated, inhibition, significance)","Carcinogen: 4(METHYLNITROSAMINO)-1-(3-PYRIDYL)-1-BUTANONE, 64091-91-4, 1 UMOL IN 0.1 ML CORN OIL ONCE 2 HR PRIOR TO CARCINOGEN DOSE (STUDY DURATION: 16 WK), Route [Inhibitor]: GAVAGE, Species: MOUSE, Strain/Sex: STRAIN-A/FEMALE, Target Tissue: Type of Lesion: LUNG: ADENOMA, Dose [Carcinogen]: 10 UMOL IN 0.1 ML SALINE ONCE, Promoter: NONE USED","100%, 35%, 65%, p<0.001"
same,"tumour outcome (control, treated, inhibition, significance)","Carcinogen: 4-(METHYLNITROSAMINO)-1-(3-PYRIDYL)-1-BUTANONE, 64091-91-4, 1 UMOL ONCE 2 HR PRIOR TO CARCINOGEN DOSE (STUDY DURATION: 16 WK), Route [Inhibitor]: GAVAGE, Species: MOUSE, Strain/Sex: STRAIN-A/FEMALE, Target Tissue: Type of Lesion: LUNG: ADENOMA, Dose [Carcinogen]: 10 UMOL IN 0.1 ML SALINE ONCE, Promoter: NONE USED","100%, 35%, 65%, p<0.05"
same,"tumour outcome (control, treated, inhibition, significance)","Carcinogen: 4-(METHYLNITROSAMINO)-1-(3-PYRIDYL)-1-BUTANONE, 64091-91-4, 5 UMOL ONCE 2 HR PRIOR TO CARCINOGEN DOSE (STUDY DURATION: 16 WK), Route [Inhibitor]: GAVAGE, Species: MOUSE, Strain/Sex: STRAIN-A/FEMALE, Target Tissue: Type of Lesion: LUNG: ADENOMA, Dose [Carcinogen]: 10 UMOL IN 0.1 ML SALINE ONCE, Promoter: NONE USED","100%, 25%, 75%, p<0.05"
NCCS(=O)(=O)O,"tumour outcome (control, treated, inhibition, significance)","Carcinogen: AZOXYMETHANE, 25843-45-2, 600 PPM IN DIET BEGINNING 2 WK PRIOR TO CARCINOGEN TREATMENT AND CONTINUING FOR DURATION OF STUDY (STUDY DURATION: 56, Route [Inhibitor]: ORAL, Species: RAT, Strain/Sex: F344/MALE, Target Tissue: Type of Lesion: COLON: INVASIVE ADENOCARCINOMA, Dose [Carcinogen]: 15 MG/KG 1/WK FOR 2 WK, Promoter: NONE USED","34%, 16%, 53%, not significant"
same,"tumour outcome (control, treated, inhibition, significance)","Carcinogen: AZOXYMETHANE, 25843-45-2, 600 PPM IN DIET BEGINNING 2 WK PRIOR TO CARCINOGEN TREATMENT AND CONTINUING FOR DURATION OF STUDY (STUDY DURATION: 56, Route [Inhibitor]: ORAL, Species: RAT, Strain/Sex: F344/MALE, Target Tissue: Type of Lesion: COLON: NONINVASIVE ADENOCARCINOMA, Dose [Carcinogen]: 15 MG/KG 1/WK FOR 2 WK, Promoter: NONE USED","53%, 61%, -15%, not significant"
same,"tumour outcome (control, treated, inhibition, significance)","Carcinogen: AZOXYMETHANE, 25843-45-2, 1200 PPM IN DIET BEGINNING 2 WK PRIOR TO CARCINOGEN TREATMENT AND CONTINUING FOR DURATION OF STUDY (STUDY DURATION: 5, Route [Inhibitor]: ORAL, Species: RAT, Strain/Sex: F344/MALE, Target Tissue: Type of Lesion: COLON: INVASIVE ADENOCARCINOMA, Dose [Carcinogen]: 15 MG/KG 1/WK FOR 2 WK, Promoter: NONE USED","34%, 17%, 50%, not significant"
same,"tumour outcome (control, treated, inhibition, significance)","Carcinogen: AZOXYMETHANE, 25843-45-2, 1200 PPM IN DIET BEGINNING 2 WK PRIOR TO CARCINOGEN TREATMENT AND CONTINUING FOR DURATION OF STUDY (STUDY DURATION: 5, Route [Inhibitor]: ORAL, Species: RAT, Strain/Sex: F344/MALE, Target Tissue: Type of Lesion: COLON: NONINVASIVE ADENOCARCINOMA, Dose [Carcinogen]: 15 MG/KG 1/WK FOR 2 WK, Promoter: NONE USED","53%, 47%, 11%, not significant"
same,"tumour outcome (control, treated, inhibition, significance)","Carcinogen: DIETHYLNITROSAMINE, 55-18-5, 2000 PPM IN DIET FOR 3 WK DURING INITIATION PHASE (STUDY DURATION: 24 WK), Route [Inhibitor]: ORAL, Species: RAT, Strain/Sex: F344/MALE, Target Tissue: Type of Lesion: LIVER: HEPATOCELLULAR ADENOMA, Dose [Carcinogen]: 100 MG/KG BW 1/WK FOR 3 WK, Promoter: PHENOBARBITAL, 50-06-6","19/20 (95%), 12/19 (63%), 34%, p<0.02"
same,"tumour outcome (control, treated, inhibition, significance)","Carcinogen: DIETHYLNITROSAMINE, 55-18-5, 2000 PPM IN DIET FOR 3 WK DURING INITIATION PHASE (STUDY DURATION: 24 WK), Route [Inhibitor]: ORAL, Species: RAT, Strain/Sex: F344/MALE, Target Tissue: Type of Lesion: LIVER: HEPATOCELLULAR CARCINOMA, Dose [Carcinogen]: 100 MG/KG BW 1/WK FOR 3 WK, Promoter: PHENOBARBITAL, 50-06-6","14/20 (70%), 13/19 (68%), 3%, not significant"
same,"tumour outcome (control, treated, inhibition, significance)","Carcinogen: DIETHYLNITROSAMINE, 55-18-5, 2000 PPM IN DIET FOR 20 WK BEGINNING POST CARCINOGEN TREATMENT (STUDY DURATION: 24 WK), Route [Inhibitor]: ORAL, Species: RAT, Strain/Sex: F344/MALE, Target Tissue: Type of Lesion: LIVER: HEPATOCELLULAR ADENOMA, Dose [Carcinogen]: 100 MG/KG BW 1/WK FOR 3 WK, Promoter: NONE USED","3/24 (13%), 4/18 (22%), -69%, not significant"
same,"tumour outcome (control, treated, inhibition, significance)","Carcinogen: DIETHYLNITROSAMINE, 55-18-5, 2000 PPM IN DIET FOR 20 WK BEGINNING POST CARCINOGEN TREATMENT (STUDY DURATION: 24 WK), Route [Inhibitor]: ORAL, Species: RAT, Strain/Sex: F344/MALE, Target Tissue: Type of Lesion: LIVER: HEPATOCELLULAR ADENOMA, Dose [Carcinogen]: 100 MG/KG BW 1/WK FOR 3 WK, Promoter: PHENOBARBITAL, 50-06-6","19/20 (95%), 7/21 (33%), 65%, p<0.0001"
same,"tumour outcome (control, treated, inhibition, significance)","Carcinogen: DIETHYLNITROSAMINE, 55-18-5, 2000 PPM IN DIET FOR 20 WK BEGINNING POST CARCINOGEN TREATMENT (STUDY DURATION: 24 WK), Route [Inhibitor]: ORAL, Species: RAT, Strain/Sex: F344/MALE, Target Tissue: Type of Lesion: LIVER: HEPATOCELLULAR CARCINOMA, Dose [Carcinogen]: 100 MG/KG BW 1/WK FOR 3 WK, Promoter: NONE USED","7/24 (29%), 4/18 (22%), 24%, not significant"
same,"tumour outcome (control, treated, inhibition, significance)","Carcinogen: DIETHYLNITROSAMINE, 55-18-5, 2000 PPM IN DIET FOR 20 WK BEGINNING POST CARCINOGEN TREATMENT (STUDY DURATION: 24 WK), Route [Inhibitor]: ORAL, Species: RAT, Strain/Sex: F344/MALE, Target Tissue: Type of Lesion: LIVER: HEPATOCELLULAR CARCINOMA, Dose [Carcinogen]: 100 MG/KG BW 1/WK FOR 3 WK, Promoter: PHENOBARBITAL, 50-06-6","14/20 (70%), 13/21 (62%), 11%, not significant"
